This is an account of results in BindingDB's records for patent US10383835 (University of California, 2019).

SMILES strings stand for the structures.

In this experiment the target is T1, Bifunctional epoxide hydrolase 2 (Sus scrofa, UniProt Q6Q2C2).
T1 sequence (Q6Q2C2 whole entry): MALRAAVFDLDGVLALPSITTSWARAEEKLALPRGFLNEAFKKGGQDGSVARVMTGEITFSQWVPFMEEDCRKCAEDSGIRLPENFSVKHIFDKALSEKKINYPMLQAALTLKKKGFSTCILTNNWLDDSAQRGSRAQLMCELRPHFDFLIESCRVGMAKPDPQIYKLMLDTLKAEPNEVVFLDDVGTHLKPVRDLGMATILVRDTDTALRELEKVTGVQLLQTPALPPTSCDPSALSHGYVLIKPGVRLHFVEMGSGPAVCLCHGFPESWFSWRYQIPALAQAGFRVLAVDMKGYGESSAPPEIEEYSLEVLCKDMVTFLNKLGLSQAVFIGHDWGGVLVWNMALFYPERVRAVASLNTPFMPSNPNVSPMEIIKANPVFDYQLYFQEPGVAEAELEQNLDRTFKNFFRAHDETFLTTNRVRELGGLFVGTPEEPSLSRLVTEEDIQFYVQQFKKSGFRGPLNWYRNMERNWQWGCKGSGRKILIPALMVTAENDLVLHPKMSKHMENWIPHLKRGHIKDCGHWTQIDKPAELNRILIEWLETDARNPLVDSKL
Description: Inhibition Assay.
Description: The enzyme also can be detected based on the binding of specific ligands to the catalytic site which either immobilize the enzyme or label it with a probe such as dansyl, fluoracein, luciferase, green fluorescent protein or other reagent. The enzyme can be assayed by its hydration of EETs, its hydrolysis of an epoxide to give a colored product. The assays are normally carried out with a recombinant enzyme following affinity purification.

Consider `CC(=O)N1CCC(NC(=O)Nc2ccc(OC(F)(F)F)cc2)CC1` [US10383835, Compound 1555], for which the IC50 (in general, the midpoint of a concentration-inhibition curve) is 201 nM.
